Measured values: PubChem BioAssay (NCI)
Values joined by “and” are separate entries in the source; they are usually repeats but may differ in a detail not shown here. Identical values can stand only once.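 Exposure lasted 48 hours, with cells grown in 96-well plates and compounds tested at five concentrations. GI50 is the concentration that inhibits growth by half. TGI is the concentration that stops growth completely.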

Legend:
Assay in all cases: NCI anticancer screen, dose series, 48 h
SF-268 CNS = system: SF-268 CNS
M14 melanoma = system: M14 melanoma
SN12C renal = system: SN12C renal
TK-10 renal = system: TK-10 renal
HCT-116 colon = system: HCT-116 colon
A549 NSCLC = system: A549 NSCLC
SR leukemia = system: SR leukemia
ACHN renal = system: ACHN renal
MCF7 breast = system: MCF7 breast
SF-295 CNS = system: SF-295 CNS

Compound | GI50 (SF-268 CNS) | TGI (SF-268 CNS) | GI50 (M14 melanoma) | TGI (M14 melanoma) | GI50 (SN12C renal) | TGI (SN12C renal) | GI50 (TK-10 renal) | TGI (TK-10 renal) | GI50 (HCT-116 colon) | TGI (HCT-116 colon) | GI50 (A549 NSCLC) | TGI (A549 NSCLC) | GI50 (SR leukemia) | TGI (SR leukemia) | GI50 (ACHN renal) | TGI (ACHN renal) | GI50 (MCF7 breast) | TGI (MCF7 breast) | GI50 (SF-295 CNS) | TGI (SF-295 CNS)
CCSc1nc(N=Cc2cccs2)c2cn[nH]c2n1 | 6.49 µM | > 100 µM | 14.8 µM | 28 µM | 61.9 µM | > 100 µM | 9.47 µM | 41.1 µM | 6.49 µM | > 100 µM | 29.2 µM | > 100 µM | 2.1 µM | 7.21 µM | 16.2 µM | > 100 µM | 3.5 µM | 19.2 µM | 19.1 µM | > 100 µM
COc1ccc(-c2nc(-c3ccccc3)c(-c3ccccc3)n2C2CC2)cc1OC1CCCC1 | 44.9 µM | > 165 µM | 163 µM | > 165 µM | 128 µM | > 165 µM |  |  | 14.1 µM | > 165 µM | 48.7 µM | > 165 µM | 7.92 µM | 59.4 µM | 58 µM | > 165 µM | 67.6 µM | > 165 µM | 67.5 µM | > 165 µM
O=[N+]([O-])/C=C/c1c[nH]c2ccccc12 | 16 µM | 40.5 µM | 2.35 µM | 6.43 µM | 17.8 µM | 37.1 µM | 16.8 µM | 30.7 µM | 3.32 µM | 11.3 µM | 14 µM | 31.7 µM | 2.92 µM | 7.18 µM | 17.1 µM | 32.3 µM | 6.02 µM | 38.4 µM | 14 µM | 30.6 µM
CC(=O)OC(C)(C)/C=C/C(=O)[C@](C)(O)[C@H]1[C@H](O)C[C@@]2(C)[C@@H]3CC=C4[C@@H](C[C@H](O)C(=O)C4(C)C)[C@]3(C)C(=O)C[C@]12C |  | < 0.01 µM |  | < 0.01 µM |  | 2.99 µM |  | < 0.01 µM |  | 1.22 µM |  | 11.4 µM |  | 1.21 µM |  | < 0.03 µM |  | 7.66 µM |  | 0.0304 µM
COc1ccc(-c2cn[nH]c2-c2cc(OC)c(OC)c(OC)c2)cc1N |  | > 100 µM | < 0.01 µM and 0.0247 µM | > 100 µM | < 0.01 µM and 0.0802 µM | > 100 µM |  | > 100 µM | < 0.01 µM and 0.0344 µM | > 100 µM | < 0.01 µM and 0.0425 µM | > 100 µM | < 0.01 µM | > 100 µM | < 0.01 µM and 0.044 µM | > 100 µM | < 0.01 µM and 0.0266 µM | > 100 µM | < 0.01 µM and 0.0134 µM | > 100 µM
O=C1OC(=O)C2C1C1(c3ccccc3)C(c3ccccc3)=C(c3ccccc3)C2(c2ccccc2)S1=O (stereo not given) | > 100 µM | > 100 µM | > 100 µM | > 100 µM | > 100 µM | > 100 µM | > 100 µM | > 100 µM | > 100 µM | > 100 µM | > 100 µM | > 100 µM | 49.3 µM | > 100 µM | > 100 µM | > 100 µM | > 100 µM | > 100 µM | > 100 µM | > 100 µM
O=C(Nc1ccc(Cl)cc1)c1cc2ccccc2cc1O | 3.68 µM | > 100 µM |  |  | 2.46 µM | > 100 µM | 3.93 µM | > 100 µM | 2.19 µM | 16.5 µM | 4.54 µM | > 100 µM | 3.93 µM | > 100 µM | 3.34 µM | > 100 µM | 1.9 µM | > 100 µM | 2.96 µM | > 100 µM
CC1(C)OCC(CO)(Nc2nc(N3CC3)nc(N3CC3)n2)CO1 |  | 27.6 µM |  | 25.5 µM |  | 58.6 µM |  | 67.5 µM |  | 27.5 µM |  | 34.3 µM |  | 28.9 µM |  | 13.9 µM |  |  |  | 20.3 µM
CC(=O)Nc1ccc(C2[C@H]3C(=O)N(c4ccc(Cc5ccc(N6C(=O)[C@@H]7ON(c8ccccc8)C(c8ccc(NC(C)=O)cc8)[C@@H]7C6=O)cc5)cc4)C(=O)[C@H]3ON2c2ccccc2)cc1 (stereo not given in full) |  | > 100 µM |  | 79.8 µM |  | > 100 µM |  | > 100 µM |  | > 100 µM |  | > 100 µM |  | > 100 µM |  | > 100 µM |  |  |  | > 100 µM
Cc1nc2cccc(NCc3ccc(C(=O)NO)cc3)c2c(=O)n1-c1ccccc1 |  |  |  |  | 2.14 µM | 5.38 µM | 1.76 µM | 6.07 µM | 1.35 µM | 4.76 µM | 2.22 µM | 5.17 µM | 1.43 µM | > 100 µM | 1.62 µM | 3.33 µM | 2.89 µM | 38.9 µM | 1.76 µM | 3.54 µM
COc1cc(/C=C/C(=O)c2ccc(Cl)cc2)ccc1OS(=O)(=O)c1ccc(C)cc1 | 7.17 µM | 34 µM | 6.35 µM | 23.6 µM | 10 µM | 34.8 µM |  |  | 1.76 µM | 3.71 µM | 18.4 µM | > 100 µM | 1.9 µM | 6.56 µM | 9.68 µM | 22.2 µM | 2.56 µM | 25.6 µM | 9.27 µM | 26.2 µM
O=C(Oc1ccc(CCl)cc1)c1ccccc1 | 0.17 µM | 0.326 µM | 0.125 µM | 0.348 µM |  |  | 0.174 µM | 0.33 µM | 0.138 µM | 0.426 µM | 1.16 µM | 2.42 µM | 0.0594 µM | 0.423 µM | 0.119 µM | 0.246 µM | 0.179 µM | 0.525 µM | 0.185 µM | 0.543 µM
O=C(C(Br)Br)C(Br)C(Br)c1ccccc1 (stereo not given) | 4.04 µM | 16.9 µM | 2.5 µM | 6.33 µM | 12.7 µM | 33.2 µM | 2.47 µM | 4.78 µM | 1.83 µM | 3.42 µM | 20.4 µM | 52.4 µM | 1.61 µM | 3.68 µM | 1.68 µM | 3.18 µM | 3.58 µM | 13.4 µM |  | 
CS(=O)c1ccc(COP(N)(=O)N(CCCl)CCCl)cc1 (stereo not given) |  | > 100 µM |  | > 100 µM |  | > 100 µM |  | > 100 µM |  | > 100 µM |  | > 100 µM |  | > 100 µM |  | > 100 µM |  |  |  | > 100 µM
O=C1OC2(c3ccccc3Oc3ccccc32)c2ccccc21 |  | > 100 µM |  | > 100 µM |  | > 100 µM |  | > 100 µM |  | > 100 µM |  | > 100 µM |  | > 100 µM |  | > 100 µM |  |  |  | > 100 µM
